Data: PubChem BioAssay (NCI)
Several values for one entry are separate records, joined by “and”; a condition that tells them apart may be missing. Identical values can stand only once.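 48-hour exposure; five concentrations; linearly interpolated endpoints. Here, GI50 denotes the concentration required for 50% inhibition of growth. TGI is the concentration that stops growth completely.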

Assays:
Test in all cases: growth of human tumour cells (NCI), 48 h
LOX IMVI melanoma = system: LOX IMVI melanoma
NCI-H460 lung = system: NCI-H460 lung
OVCAR-4 ovarian = system: OVCAR-4 ovarian
BT-549 breast = system: BT-549 breast
M14 melanoma = system: M14 melanoma
UO-31 renal = system: UO-31 renal
A549 NSCLC = system: A549 NSCLC
HT29 colon = system: HT29 colon
UACC-257 melanoma = system: UACC-257 melanoma
RXF 393 renal = system: RXF 393 renal

Row | SMILES | GI50 (LOX IMVI melanoma) | TGI (LOX IMVI melanoma) | GI50 (NCI-H460 lung) | TGI (NCI-H460 lung) | GI50 (OVCAR-4 ovarian) | TGI (OVCAR-4 ovarian) | GI50 (BT-549 breast) | TGI (BT-549 breast) | GI50 (M14 melanoma) | TGI (M14 melanoma) | GI50 (UO-31 renal) | TGI (UO-31 renal) | GI50 (A549 NSCLC) | TGI (A549 NSCLC) | GI50 (HT29 colon) | TGI (HT29 colon) | GI50 (UACC-257 melanoma) | TGI (UACC-257 melanoma) | GI50 (RXF 393 renal) | TGI (RXF 393 renal)
1 | O=C(Oc1ccccc1Cl)c1ccccc1Nc1cccc(C(F)(F)F)c1 | 11.9 µM | 33.5 µM | 37.3 µM | > 100 µM | 62.7 µM | > 100 µM | 18.3 µM | 52.6 µM | 13.9 µM | 38.9 µM | 30.9 µM | > 100 µM | 36 µM | > 100 µM | 30 µM | > 100 µM | 26.4 µM | 76 µM | 13.9 µM | 43.9 µM
2 | COc1cc(-c2nc(-c3ccc(-c4nc5ccc(F)cc5[nH]4)cc3)no2)cc(OC)c1OC | 1.65 µM | 3.73 µM | 2.97 µM | 12.5 µM | 2.82 µM | 11.3 µM | 3.49 µM | 11.1 µM | 3.23 µM | 10.5 µM | 2.51 µM | 6.3 µM | 3.42 µM | 14.6 µM | 3.69 µM | 17.7 µM | 3.7 µM | 14.8 µM | 1.9 µM | 5.44 µM
3 | O=C(Cn1c(C(=O)c2ccc(Cl)cc2)nc(-c2ccccc2)c1-c1ccccc1)c1ccc(Cl)cc1 | > 100 µM | > 100 µM | > 100 µM | > 100 µM | > 100 µM | > 100 µM | > 100 µM | > 100 µM | > 100 µM | > 100 µM | > 100 µM | > 100 µM | > 100 µM | > 100 µM | > 100 µM | > 100 µM | > 100 µM | > 100 µM | > 100 µM | > 100 µM
4 | CCCC(C)c1c(Cl)nc(Cl)nc1Cl (centres undefined) | – | > 100 µM | – | 45.6 µM | – | 44.7 µM | – | 5.16 µM | – | 3.92 µM | – | 34.7 µM | – | 29.4 µM | – | 26.5 µM | – | 26.2 µM | – | 22.4 µM
5 | COc1ccc(C2=N[C@@H](c3ccc(Cl)cc3)[C@@H](c3ccc(Cl)cc3)N2C(=O)N2CCNC(=O)C2)c(OC(C)C)c1 | 13.8 µM and 4.07 µM and 2.81 µM | 27.4 µM and 19.3 µM and 18.3 µM | 14.8 µM and 3.04 µM and 2.17 µM | 29.9 µM and 16.3 µM and 14.8 µM | 12.1 µM and 12.5 µM and 13.7 µM | 24.9 µM and 26 µM and 31.5 µM | 12.6 µM and 14.9 µM and 15.4 µM | 25.7 µM and 29.2 µM and 29.9 µM | 14.1 µM and 14.9 µM and 16.3 µM | 28.4 µM and 32 µM and 33.2 µM | 5.92 µM and 3.77 µM and 2.63 µM | 20.7 µM and 17.5 µM and 15.9 µM | 13.3 µM and 3.9 µM and 3.65 µM | 27.4 µM and 18.4 µM and 17.4 µM | 14.9 µM and 14.4 µM and 14.2 µM | 31.4 µM and 28.2 µM and 29.1 µM | 13.2 µM and 4.26 µM and 3.98 µM | 26.5 µM and 19.3 µM and 18.3 µM | 12.3 µM and 12.7 µM and 13.9 µM | 25.4 µM and 25.9 µM and 27.8 µM
6 | COC1C(CO)OC(n2c3c(Cl)cccc3c3c4c(c5c6cccc(Cl)c6[nH]c5c32)C(=O)NC4=O)C(O)C1O (centres undefined) | – | 0.289 µM | – | 0.479 µM | – | 18.3 µM | – | 12.4 µM | – | 10.7 µM | – | 2.6 µM | – | 8.2 µM | – | > 47.3 µM | – | 1.75 µM | – | 4.95 µM
7 | COc1ccc2c(c1)[nH]c(=O)c1c3cc(OC)c(OC)cc3cn21 | < 0.01 µM | 1.69 µM | < 0.01 µM | 1.04 µM | 0.0384 µM | 4.72 µM | < 0.024 µM | 0.861 µM | < 0.01 µM | 11.8 µM | < 0.01 µM | 17.4 µM | < 0.01 µM | 1.41 µM | < 0.01 µM | – | 14.7 µM | 29.5 µM | < 0.01 µM | 1.89 µM
8 | Clc1ccc2nc(Cl)c3ccccc3c2c1 | 20.9 µM | > 100 µM | 3.29 µM | 11.8 µM | 2.03 µM | 5.02 µM | 36.1 µM | > 100 µM | > 100 µM | > 100 µM | 3.82 µM | 38.1 µM | 5.92 µM | > 100 µM | 19.9 µM | > 100 µM | > 100 µM | > 100 µM | 9.15 µM | 30.4 µM
9 | O=C1CC(c2ccsc2)c2snc(-c3ccc(Cl)cc3)c2N1 (centres undefined) | 1 µM | > 100 µM | 0.581 µM | > 100 µM | 5.6 µM | > 100 µM | 2.26 µM | > 100 µM | 0.804 µM | > 100 µM | 3.86 µM | > 100 µM | 0.626 µM | > 100 µM | 0.4 µM | > 100 µM | 4.08 µM | > 100 µM | 3.49 µM | 50.8 µM
10 | C[C@@H](Oc1cc(-n2cnc3ccc(OCC4CCN(C)CC4)cc32)sc1C(N)=O)c1ccccc1Cl | 0.0926 µM | 3.6 µM | 0.0846 µM | 3.04 µM | 0.477 µM | 4.81 µM | 0.397 µM | 3.58 µM | 0.0561 µM | 3.12 µM | 0.616 µM | 3.96 µM | 0.0919 µM | 2.93 µM | 0.0108 µM | 2.68 µM | 0.117 µM | 4.99 µM | 0.0546 µM | 2.76 µM
11 | CNC(=O)c1cc(Oc2ccc3nc(N[C@@H]4CCCC[C@H]4O)sc3c2)ccn1 | 58.4 µM | > 100 µM | 53.4 µM | > 100 µM | 31.2 µM | > 100 µM | 31.8 µM | > 100 µM | 36.7 µM | > 100 µM | 33.5 µM | > 100 µM | 62.5 µM | > 100 µM | 97.8 µM | > 100 µM | 37.2 µM | > 100 µM | > 100 µM | > 100 µM
12 | O=C(CCN1CCCC1)Nc1ccc2c(NCCc3ccccc3)c3ccccc3nc2c1 | 0.305 µM | 1.22 µM | 0.296 µM | 1.05 µM | 0.326 µM | 1.19 µM | 1.19 µM | 2.66 µM | 0.5 µM | 1.81 µM | 1.49 µM | 3.69 µM | 0.334 µM | 1.7 µM | 0.368 µM | 1.75 µM | 1.02 µM | 2.71 µM | 0.51 µM | 1.75 µM
